How the values were obtained:
[1] = Inhibition of Mycobacterium tuberculosis shikimate dehydrogenase using shikimic acid as substrate in presence of NADP+ by spectrophotometric analysis
[2] = system: Mycobacterium tuberculosis; experiment: Antibacterial activity against Mycobacterium tuberculosis H37Rv ATCC 25618 after 8 to 9 days by BacT/Alert MP bottle assay; type: functional
[3] = Cytotoxicity against human HepG2 cells assessed as reduction in cell viability by Alamar blue assay; type: toxicity, cell-based
[4] = Selectivity index, ratio of IC50 for African green monkey Vero cells to MIC for Mycobacterium tuberculosis H37Rv ATCC 25618; type: toxicity, cell-based; details: read-out: Selectivity Index
[5] = Cytotoxicity against African green monkey Vero cells assessed as reduction in cell viability by Alamar blue assay; type: toxicity, cell-based; details: African green monkey (Chlorocebus sabaeus)
[6] = Selectivity index, ratio of IC50 for human HepG2 cells to MIC for Mycobacterium tuberculosis H37Rv ATCC 25618; type: toxicity, cell-based; details: read-out: Selectivity Index

Row | Structure (SMILES) | MIC [2] | other results
1 | COc1ccc(C2=Nn3c(nnc3-c3ccncc3)SC2)cc1 | – | IC50 [1]: 20.99 µg/mL
2 | c1ccc(C2=Nn3c(nnc3-c3ccncc3)SC2)cc1 | 8 µg/mL | –
3 | Fc1ccc(C2=Nn3c(Cc4ccc5ccccc5c4)nnc3SC2)cc1 | > 8 µg/mL | –
4 | COc1ccc(C2=Nn3c(nnc3-c3ccc(Cl)cc3)SC2)cc1 | > 8 µg/mL | –
5 | COc1ccc(C2=Nn3c(nnc3-c3ccc(Br)cc3)SC2)cc1 | 8 µg/mL | –
6 | O=[N+]([O-])c1ccc(C2=Nn3c(nnc3-c3ccc(Br)cc3)SC2)cc1 | 0.6 µM | IC50 [1]: 86.39 µg/mL; IC50 [3]: 10.4 µM; selectivity ratio [4]: 23.2; IC50 [5]: 13.9 µM; selectivity ratio [6]: 17.3
7 | COc1ccc(C2=Nn3c(Cc4ccc5ccccc5c4)nnc3SC2)cc1 | > 8 µg/mL | –
8 | c1ccc(C2=Nn3c(nnc3-c3ccccc3)SC2)cc1 | – | IC50 [1]: 28.38 µg/mL
9 | Fc1ccc(C2=Nn3c(nnc3-c3ccc(Cl)cc3)SC2)cc1 | > 8 µg/mL | –
10 | O=[N+]([O-])c1ccc(C2=Nn3c(Cc4ccc5ccccc5c4)nnc3SC2)cc1 | 9.95 µM | IC50 [1]: 11.68 µg/mL; IC50 [3]: 72.6 µM; selectivity ratio [4]: 7.01; IC50 [5]: 69.7 µM; selectivity ratio [6]: 7.29
11 | O=[N+]([O-])c1ccc(C2=Nn3c(nnc3-c3ccncc3F)SC2)cc1 | 2.8 µM | IC50 [1]: 73.57 µg/mL; IC50 [3]: 166 µM; selectivity ratio [4]: 127; IC50 [5]: 355 µM; selectivity ratio [6]: 59.2
12 | O=[N+]([O-])c1ccc(C2=Nn3c(nnc3-c3ccc(Cl)cc3)SC2)cc1 | 8 µg/mL | –
13 | Fc1ccc(C2=Nn3c(nnc3-c3ccc(Br)cc3)SC2)cc1 | > 8 µg/mL | –
14 | Fc1ccc(C2=Nn3c(nnc3-c3ccncc3F)SC2)cc1 | > 8 µg/mL | –
15 | COc1ccc(-c2nnc3n2N=C(c2ccc(F)cc2)CS3)cc1 | > 8 µg/mL | –
16 | Fc1cnccc1-c1nnc2n1N=C(c1ccccc1)CS2 | > 8 µg/mL | –

Row | Structure (SMILES) | MIC [2] | other results
17 | COc1ccc(C2=Nn3c(nnc3-c3ccccc3)SC2)cc1 | > 8 µg/mL | –
18 | c1ccc(C2=Nn3c(Cc4ccc5ccccc5c4)nnc3SC2)cc1 | > 8 µg/mL | –
19 | Fc1ccc(-c2nnc3sc(COc4ccccc4)nn23)cc1 | 24.5 µM | IC50 [1]: 23 µg/mL; IC50 [3]: 46.6 µM; selectivity ratio [4]: 2.9; IC50 [5]: 71 µM; selectivity ratio [6]: 1.9
20 | Fc1ccc(C2=Nn3c(nnc3-c3ccccc3)SC2)cc1 | > 8 µg/mL | –
21 | Clc1ccc(-c2nnc3sc(COc4ccc(Br)cc4)nn23)cc1 | 0.5 µg/mL | –
22 | Clc1ccc(-c2nnc3n2N=C(c2ccccc2)CS3)cc1 | > 8 µg/mL | –
23 | COc1ccc(C2=Nn3c(nnc3-c3ccncc3F)SC2)cc1 | 8 µg/mL | –
24 | Brc1ccc(OCc2nn3c(-c4ccc(Br)cc4)nnc3s2)cc1 | 0.5 µg/mL | –
25 | COc1ccc(-c2nnc3n2N=C(c2ccc([N+](=O)[O-])cc2)CS3)cc1 | > 8 µg/mL | –
26 | COc1ccc(-c2nnc3n2N=C(c2ccccc2)CS3)cc1 | > 8 µg/mL | –
27 | Fc1ccc(C2=Nn3c(nnc3-c3ccncc3)SC2)cc1 | > 8 µg/mL | –
28 | Brc1ccc(-c2nnc3n2N=C(c2ccccc2)CS3)cc1 | 0.67 µM | IC50 [1]: 252.5 µg/mL; IC50 [3]: 235 µM; selectivity ratio [4]: 87.3; IC50 [5]: 58.5 µM; selectivity ratio [6]: 350
29 | O=[N+]([O-])c1ccc(C2=Nn3c(nnc3-c3ccccc3)SC2)cc1 | > 8 µg/mL | –
30 | COc1ccc(C2=Nn3c(nnc3-c3ccc(OC)cc3)SC2)cc1 | > 8 µg/mL | –
31 | NNC(=O)c1ccncc1 [ISONIAZID] | 0.12 µg/mL | –
32 | CO[C@H]1/C=C/O[C@@]2(C)Oc3c(C)c(O)c4c(O)c(c(/C=N/N5CCN(C)CC5)c(O)c4c3C2=O)NC(=O)/C(C)=C\C=C\[C@H](C)[C@H](O)[C@@H](C)[C@@H](O)[C@@H](C)[C@H](OC(C)=O)[C@@H]1C [RIFAMPIN] | 0.25 µg/mL | –

— ChEMBL document CHEMBL3875182 (Bioorg Med Chem, 2017)
